{"source": "patent US20080118494A1", "about": "“Compositions For Detection Of Latent Hiv Reactivation And Methods Of Using The Same” (priority 2004, published 2008)", "test_system": "latent HIV-1 infection in human PBMCs", "assay": "Reactivation of latent HIV-1 in in vitro infected, EGFP-negative sorted human PBMCs", "assay_type": "cell-based", "conditions": "representative donor, 24 h post stimulation, untreated background 0.23%", "protocol": "PBMCs from three different donors were infected with HIV-1 NLENG1-IRES and on day three post infection were treated with indinavir to inhibit de novo infection. On day seven following infection, HIV-1 expressing EGFP^+ cells were removed from the cultures using fluorescence activated cell sorting. (A) Following the sorting procedure, the EGFP-negative cells were cultured in supplemented RPMI 1640 to determine levels of spontaneous reactivation (Control), stimulated with anti-CD3 antibody clone UCHT1 (CD3), the costimulatory anti-CD28 antibody clone CD28.2 (cCD28) and with a combination of these two antibodies (cCD28/CD3). […] Numbers indicate the percentage of EGFP positive cells and the mean channel fluorescence intensity of the EGFP-positive cell population. […]\nIn vitro generation and analysis of HIV-1 latency in PBMCs. […] In the absence of IL-2, the cells were cultured for seven days following infection and then subjected to fluorescence activated cell sorting (FACS) to remove EGFP positive, HIV-1 expressing cells. The EGFP negative cell fraction was then activated with the indicated stimuli and reactivation of latent HIV-1 expression was measured 24 h post stimulation by determining EGFP fluorescence using FACS analysis. […]"}
{"smiles": "CCCCCCCCCCCCCC(=O)O[C@@H]1[C@@H](C)[C@@]2(O)[C@@H](C=C(CO)C[C@]3(O)C(=O)C(C)=C[C@@H]23)[C@@H]2C(C)(C)[C@]12OC(C)=O", "note": "[PMA, 13-phorbol-12-myristate acetate]", "values": [{"measurement": "HIV-1 reactivation as percentage of EGFP+ cells", "value": 0.60, "unit": "%"}]}
